Values after ≈ are worked out from the molar mass of the structure shown. Values joined by “and” are separate entries in the source; they are usually repeats but may differ in a detail not shown here. Identical values can stand only once. Like-named read-outs stand apart in the source and are kept apart here. Ends that are not written are not given here.
Legend:
Escherichia coli = type: cell-based
Experimental: (§1) The minimal inhibitory concentration (MIC) of each peptide against various bacteria was determined using a standardized dilution method according to NCSLA guidelines [35]. Overnight colonies of E. coli, Pseudomonas aeruginosa, Salmonella typhimurium, Staphylococcus epidermis and Staphylococcus aureus, were suspended to a turbidity of 0.5 OD units and further diluted in Mueller-Hinton broth (MHB). […] Ten microliters of each concentration was added to each corresponding well of a 96-well polypropylene microtiter plate and 1×10^5 bacteria in the volume of 90 µL. The plate was incubated at 37°C for 16 h and then read at 600 nm with a Synergy H1 hybrid reader (Biotek).

Staphylococcus aureus = type: cell-based
Experimental: as §1

Pseudomonas aeruginosa = type: cell-based
Experimental: as §1

Staphylococcus epidermis = type: cell-based
Experimental: as §1

Salmonella typhimurium = type: cell-based
Experimental: as §1

human red blood cells = test: Haemolytic activity; type: cell-based; details: 0.5% human RBC, 1 h 37°C, OD 414 nm, 100% = 1% Triton X-100, triplicate
Experimental: The peptide's haemolytic activities were determined using human red blood cells (RBCs; Research Blood Components, LLC) in 96-well polypropylene microtiter plates. One hundred µl of 0.5% RBC suspension was added to an equal volume of a peptide (8–256 µg/ml). After 1 h at 37°C, plates were centrifuged at 1420×g for 5 min and the optical density of the supernatant was measured at 414 nm with a Synergy H1 hybrid reader (Biotek). Values for 0% and 100% lysis were obtained by adding PBS or Triton X-100 (1%; final concentration) to RBCs, respectively. All assays were performed in triplicate and the values of percent lysis were within a 1% standard deviation range.

[1] = Escherichia coli, Mueller Hinton broth, acetic acid/BSA, 1×10^5 bacteria, 37°C 16 h, read at 600 nm
[2] = Staphylococcus aureus, Mueller Hinton broth, acetic acid/BSA, 1×10^5 bacteria, 37°C 16 h, read at 600 nm
[3] = Pseudomonas aeruginosa, Mueller Hinton broth, acetic acid/BSA, 1×10^5 bacteria, 37°C 16 h, read at 600 nm
[4] = Staphylococcus epidermis, Mueller Hinton broth, acetic acid/BSA, 1×10^5 bacteria, 37°C 16 h, read at 600 nm
[5] = Salmonella typhimurium, Mueller Hinton broth, acetic acid/BSA, 1×10^5 bacteria, 37°C 16 h, read at 600 nm

Compound	MIC (Escherichia coli; [1]) [µg/mL]	MIC (Staphylococcus aureus; [2]) [µg/mL]	MIC (Pseudomonas aeruginosa; [3]) [µg/mL]	MIC (Staphylococcus epidermis; [4]) [µg/mL]	MIC (Salmonella typhimurium; [5]) [µg/mL]	Hemolytic activity (human red blood cells; peptide 16 µg/ml) [%]	Hemolytic activity (human red blood cells; peptide 32 µg/ml) [%]	Hemolytic activity (human red blood cells; peptide 64 µg/ml) [%]	Hemolytic activity (human red blood cells; peptide 128 µg/ml) [%]	Hemolytic activity (human red blood cells; peptide 256 µg/ml) [%]	Hemolytic activity (human red blood cells; peptide 8 µg/ml) [%]	Hemolytic activity	MIC (Escherichia coli; 16 h) [µg/mL]	MIC (Staphylococcus aureus; 16 h) [µg/mL]	MIC (Pseudomonas aeruginosa; 16 h) [µg/mL]	MIC (Staphylococcus epidermis; 16 h) [µg/mL]	MIC (Salmonella typhimurium; murium, 16 h) [µg/mL]
CC[C@H](C)[C@H](NC(=O)[C@H](CCCCN)NC(=O)[C@H](CCC(=O)O)NC(=O)[C@H](CCCCN)NC(=O)[C@H](CO)NC(=O)[C@H](CCCCN)NC(=O)[C@H](CCCNC(=N)N)NC(=O)[C@H](Cc1ccccc1)NC(=O)[C@H](Cc1ccccc1)NC(=O)[C@H](CC(=O)O)NC(=O)CNC(=O)[C@H](CC(C)C)NC(=O)[C@@H](N)CC(C)C)C(=O)NCC(=O)N[C@@H](CCCCN)C(=O)N[C@@H](CCC(=O)O)C(=O)N[C@@H](Cc1ccccc1)C(=O)N[C@@H](CCCCN)C(=O)N[C@@H](CCCNC(=N)N)C(=O)N[C@H](C(=O)N[C@H](C(=O)N[C@@H](CCC(N)=O)C(=O)N[C@@H](CCCNC(=N)N)C(=O)N[C@H](C(=O)N[C@@H](CCCCN)C(=O)N[C@@H](CC(=O)O)C(=O)N[C@@H](Cc1ccccc1)C(=O)N[C@@H](CC(C)C)C(=O)N[C@@H](CCCNC(=N)N)C(=O)N[C@@H](CC(N)=O)C(=O)N[C@@H](CC(C)C)C(=O)N[C@H](C(=O)N1CCC[C@H]1C(=O)N[C@@H](CCCNC(=N)N)C(=O)N[C@H](C(=O)N[C@@H](CCC(=O)O)C(=O)N[C@@H](CO)C(=O)O)[C@@H](C)O)C(C)C)[C@@H](C)CC)C(C)C)[C@@H](C)CC [LL-37, reference compound]	4 (≈ 0.89 µM)	>128	8 (≈ 1.78 µM)	>128	2 (≈ 0.445 µM)	1.7	4.1	10.4	20	20							
AMAYLAKDNLGEKITEVITILLNRLTDRLEKYAG [FhHDM-1p2]	>128	>128	>128	>128	>128	0	1.8	2.6	5.4	11.4	0						
GGLRSLGRKILRAWKKYGPIIVPIIRIG [BMAP-28]												50% and 70%	1	8	4	4	4
ISRLAGLLRKGGEKIGEKLKKIGQKIKNFFQKLVPQPE [CRAMP]													2	>128	4	>128	4
MDKYIRKEDLGMKMLDVAKILGRRIEKRMEYIAKK [Sm16-p73]	>128	>128	>128	>128	>128	0	0	0	0	0	0						
